In patent publication US8680152B2, “Cathepsin inhibitors for the treatment of bone cancer and bone cancer pain” (Virobay, Inc., priority 2011, dated 2014):
Like-named read-outs stand apart in the source and are kept apart here.

Experiments:
Human Cathepsin V = Human Cathepsin V (Homo sapiens, UniProt O60911); test: Cathepsin V assay; type: biochemical; details: for inhibition at 0.1 µM: single data point of 100 nM
Experimental: The assays were performed similarly to those described above. Human Cathepsin V: The buffer used to assay this enzyme consisted of: 50 mM MES (pH 6.5), 2.5 mM DTT, 2.5 mM EDTA, 100 mM NaCl, 0.01% BSA and 10% DMSO. Recombinant human cathepsin V was supplied at 2.0 nM. Substrate, Z-Phe-Arg-AMC, was supplied at 25 μM. Apparent inhibition constants (Ki) were calculated from the enzyme progress curves using standard mathematical models.

Human cathepsin S = Human cathepsin S (Homo sapiens, UniProt P25774); test: Cathepsin S assay; type: biochemical
Experimental: (§1) Solutions of test compounds in varying concentrations were prepared in 10 μL of dimethyl sulfoxide (DMSO) and then diluted into assay buffer (40 μL, comprising: MES, 50 mM (pH 6.5); EDTA, 2.5 mM; and NaCl, 100 mM); β-mercaptoethanol, 2.5 mM; and BSA, 0.00%. Human cathepsin S (0.05 pMoles in 25 μL of assay buffer) was added to the dilutions. The assay solutions were mixed for 5-10 seconds on a shaker plate, covered and incubated for 30 min at room temperature. Z-Val-Val-Arg-AMC (4 nMoles in 25 μL of assay buffer containing 10% DMSO) was added to the assay solutions and hydrolysis was followed spectrophotometrically (at λ 460 nm) for 5 min. Apparent inhibition constants (Ki) were calculated from the enzyme progress curves using standard mathematical models.

cathepsin B = cathepsin B (Homo sapiens, UniProt P07858); test: Cathepsin B assay; type: biochemical
Experimental: Solutions of test compounds in varying concentrations were prepared in 101 μL of dimethyl sulfoxide (DMSO) and then diluted into assay buffer (40 μL, comprising: N,N-bis(2-hydroxyethyl)-2-aminoethanesulfonic acid (BES), 50 mM (pH 6); polyoxyethylenesorbitan monolaurate, 0.05%; and dithiothreitol (DTT), 2.5 mM). Human cathepsin B (0.025 pMoles in 25 μL of assay buffer) was added to the dilutions. The assay solutions were mixed for 5-10 seconds on a shaker plate, covered and incubated for 30 min at room temperature. Z-FR-AMC (20 nMoles in 25 μL of assay buffer) was added to the assay solutions and hydrolysis was followed spectrophotometrically at (λ 460 nm) for 5 min. Apparent inhibition constants (Ki) were calculated from the enzyme progress curves using standard mathematical models.

human osteoclasts = test: Inhibition of bone resorption in vitro (human osteoclasts on bovine bone slices); type: cell-based; details: CTX/TRACP5b, FIG. 7
Experimental: FIG. 7. Inhibition of Bone Resorption In Vitro. […] Compounds of the present invention were added to cultured human differentiated bone marrow-derived osteoclasts cultured on bovine bone slices allowing them to resorb bone. Tartrate-resistant acid phosphatase 5b activity (TRACP 5b) was measured in the culture medium as an index of the number of osteoclasts formed in each well, and C-terminal cross-linked telopeptides of type 1 collagen (CTX) was measured in the culture medium to quantitate bone resorption. […] The irreversible protease inhibitor E64 as well as the reversible specific cathepsin K protease inhibitor odanacatib were included as assay controls.
Compound A was assessed in an in vitro assay for its efficacy in blocking resorption activity of human osteoclasts in vitro. Bone marrow-derived human osteoclast precursor cells were cultured on bovine bone slices for 7 days in conditions that allowed osteoclast differentiation, and allowing them to differentiate into bone-resorbing osteoclasts. After completion of osteoclast differentiation at day 7, the culture medium was removed and new culture medium for assessing osteoclast activity was added. Test compounds including Compound A was added to the cultures at this stage on day 7. Cultures were then allowed to continue for an additional 3 days allowing them to resorb bone. Concentrations of Compound assessed were 1, 3, 10, 30, 100, 300, and 1000 nM in 8 replicates. Tartrate-resistant acid phosphatase 5b activity (TRACP 5b) was measured from the culture medium collected on day 7 indicating the number of mature osteoclasts formed in each well before adding compounds. C-terminal cross-linked telopeptides of type 1 collagen (CTX) were measured form the culture medium collected at day 10 to quantitate bone resorption during days 7-10. […] The study was performed in […] with each containing a baseline group including vehicle, a control group with a reference compound E64, and 7 concentrations of the test compound to determine an EC50 for inhibition of resorption activity.

cathepsin L = cathepsin L (Homo sapiens, UniProt P07711); test: Cathepsin L assay; type: biochemical; details: for inhibition at 0.1 µM: single data point of 100 nM
Experimental: (§2) Solutions of test compounds in varying concentrations were prepared in 10 μL of dimethyl sulfoxide (DMSO) and then diluted into assay buffer (40 μL, comprising: MES, 50 mM (pH 5.5); EDTA, 2.5 mM; and DTT, 2.5 mM). Human cathepsin L (0.05 pMoles in 25 μL of assay buffer) was added to the dilutions. The assay solutions were mixed for 5-10 seconds on a shaker plate, covered and incubated for 30 min at room temperature. Z-Phe-Arg-AMC (1 nMoles in 25 μL of assay buffer) was added to the assay solutions and hydrolysis was followed spectrophotometrically at (λ 460 nm) for 5 min. Apparent inhibition constants (Ki) were calculated from the enzyme progress curves using standard mathematical models.

[1] = target: T1, Cathepsin K (huRab), humanized rabbit cathepsin K enzyme (Oryctolagus cuniculus, UniProt P43236); test: Cathepsin K (huRab) assay; type: biochemical
T1 sequence (P43236 1-329 Y175D/V274L): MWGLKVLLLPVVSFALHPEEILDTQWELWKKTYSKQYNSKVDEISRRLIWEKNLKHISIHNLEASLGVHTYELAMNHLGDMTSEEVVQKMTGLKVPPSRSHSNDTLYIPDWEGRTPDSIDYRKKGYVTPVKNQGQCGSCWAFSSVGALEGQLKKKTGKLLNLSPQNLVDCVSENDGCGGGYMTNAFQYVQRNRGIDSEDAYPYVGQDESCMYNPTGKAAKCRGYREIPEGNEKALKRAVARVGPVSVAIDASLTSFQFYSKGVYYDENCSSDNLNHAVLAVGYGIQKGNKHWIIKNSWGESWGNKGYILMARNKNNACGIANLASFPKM
Experimental: FIG. 5. Cathepsin inhibitory profiles for Compound A, Compound B, and Compound C. All human enzymes with the exception of CatK HuRab. This is a humanized rabbit cathepsin K enzyme where the key amino acids in the active site of rabbit cathepsin K have been converted to match the amino acids found in the active site of human cathepsin K. The remainder of the enzyme is rabbit. Methods are as set forth in the Examples.
as §2, with “K (0.0906” for “L (0.05”, “(4” for “(1”

Human cathepsin F = target: T2, Human cathepsin F (Homo sapiens, UniProt Q9UBX1); test: Cathepsin F assay; type: biochemical
T2 sequence (Q9UBX1 271-484): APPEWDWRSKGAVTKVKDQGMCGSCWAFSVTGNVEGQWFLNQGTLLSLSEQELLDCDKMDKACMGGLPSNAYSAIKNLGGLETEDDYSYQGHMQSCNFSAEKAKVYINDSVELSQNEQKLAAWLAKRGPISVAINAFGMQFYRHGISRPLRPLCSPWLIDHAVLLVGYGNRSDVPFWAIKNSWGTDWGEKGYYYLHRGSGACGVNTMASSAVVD
Experimental: as §1, with “DTT,” for “β-mercaptoethanol,”, “0.01%.” for “0.00%.”, “F (0.1” for “S (0.05”, “Z-Phe-Arg-AMC (2” for “Z-Val-Val-Arg-AMC (4”, “Apparent inhibition constants (Ki) were calculated from the enzyme progress curves using standard mathematical models.” left out

[2] = tested on: multiple human cathepsin enzymes; test: Cathepsin inhibitory profile on multiple cathepsin enzymes; type: biochemical
Source text: FIG. 1. […] Methods are similar to those set forth in the Biological Examples.

[3] = tested at one concentration, 100 nM

Sequence of cathepsin L (P07711 114-333): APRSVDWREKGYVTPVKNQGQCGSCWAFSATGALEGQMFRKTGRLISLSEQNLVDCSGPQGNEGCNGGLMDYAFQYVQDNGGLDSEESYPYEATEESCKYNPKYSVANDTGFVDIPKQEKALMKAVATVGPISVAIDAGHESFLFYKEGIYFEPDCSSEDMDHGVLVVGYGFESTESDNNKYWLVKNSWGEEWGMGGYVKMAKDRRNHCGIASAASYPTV
Sequence of Human cathepsin S (P25774 115-331): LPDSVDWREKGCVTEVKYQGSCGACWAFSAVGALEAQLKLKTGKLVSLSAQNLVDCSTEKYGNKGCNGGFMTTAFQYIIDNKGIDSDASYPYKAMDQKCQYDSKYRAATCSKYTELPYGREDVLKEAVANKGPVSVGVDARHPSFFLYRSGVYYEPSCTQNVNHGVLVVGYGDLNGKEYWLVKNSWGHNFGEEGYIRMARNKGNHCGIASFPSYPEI
Sequence of Human Cathepsin V (O60911 114-334): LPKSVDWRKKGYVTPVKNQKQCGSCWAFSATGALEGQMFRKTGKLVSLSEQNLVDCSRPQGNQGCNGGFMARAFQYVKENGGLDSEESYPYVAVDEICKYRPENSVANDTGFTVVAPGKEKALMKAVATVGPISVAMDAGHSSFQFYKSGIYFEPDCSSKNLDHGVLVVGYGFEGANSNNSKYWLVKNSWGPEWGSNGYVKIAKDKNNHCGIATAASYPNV

Compound | melting point [°C] | IC50 (Human Cathepsin V) [nM] | IC50 (Human cathepsin S) [nM] | IC50 (cathepsin B) [nM] | inhibition of bone resorption in vitro (human osteoclasts) | IC50 (cathepsin L) [nM] | IC50 [1] [nM] | IC50 (Human cathepsin F) [nM] | cathepsin inhibitory profile on multiple cathepsin enzymes [2] | inhibition at 0.1 µM (Human Cathepsin V) [%] | IC50 (Human Cathepsin V; [3]) [nM] | inhibition at 0.1 µM (cathepsin L) [%] | IC50 (cathepsin L; [3]) [nM] | inhibition at 0.1 µM (cathepsin B; one concentration, 100 nM) [%]
CC[C@H](NC(=O)[C@H](CCS(C)(=O)=O)N[C@@H](c1ccc(F)cc1)C(F)(F)F)C(=O)C(=O)NC1CC1 [Example 1, N-cyclopropyl-3S-{4-methanesulfonyl-2S-[2,2,2-trifluoro-1S-(4-fluoro-phenyl)-ethylamino]-butyrylamino}-2-oxo-pentanamide] | 152.5 to 153.5 |  |  |  |  |  |  |  |  |  |  |  |  | 
CC[C@H](NC(=O)[C@H](CS(=O)(=O)Cc1cccnc1)N[C@@H](c1ccc(F)cc1)C(F)(F)F)C(=O)C(=O)NC1CC1 [Compound F, (S)—N-cyclopropyl-2-oxo-3-((R)-3-((pyridin-3-ylmethyl)sulfonyl)-2-(((S)-2,2,2-trifluoro-1-(4-fluorophenyl)ethyl)amino)propanamido)pentanamide] |  | < 0.25 | 0.34 | 2.5 | inhibit bone resorption in vitro, with similar potency to Compound A | 0.3 | 28 | 74 |  |  |  |  |  | 
CC[C@H](NC(=O)[C@H](CC(F)(F)CC1CC1)NCC(F)(F)Oc1ccc(F)cc1)C(=O)C(=O)NC1CC1 [Compound D, (S)-5-cyclopropyl-N-((S)-1-(cyclopropylamino)-1,2-dioxopentan-3-yl)-2-(2,2-difluoro-2-(4-fluorophenoxy)ethylamino)-4,4-difluoropentanamide] |  |  | 0.267 | 23 | inhibit bone resorption in vitro, with similar potency to Compound A |  |  |  | very favorable cathepsin inhibitory profile | 63 | < 100 | 75 | < 100 | 
CC[C@H](NC(=O)[C@H](CC(F)(F)CC1CC1)N[C@@H](c1ccc(F)cc1)C(F)(F)F)C(=O)C(=O)NC1CC1 [Compound E, (S)-5-cyclopropyl-N—((S)-1-(cyclopropylamino)-1,2-dioxopentan-3-yl)-4,4-difluoro-2-(((S)-2,2,2-trifluoro-1-(4-fluorophenyl)ethyl)amino)pentanamide] |  |  | 0.332 | < 100 | inhibit bone resorption in vitro, with similar potency to Compound A |  |  |  |  | ≥ 98 | < 100 | ≥ 98 | < 100 | ≥ 98
CC[C@H](NC(=O)[C@H](CS(=O)(=O)c1cccc(S(C)(=O)=O)c1)N[C@@H](c1ccc(F)cc1)C(F)(F)F)C(=O)C(=O)NC1CC1 [Compound B, (S)—N-Cyclopropyl-3-((R)-3-((3-(methylsulfonyl)phenyl)sulfonyl)-2-(((S)-2,2,2-trifluoro-1-(4-fluorophenyl)ethyl)amino)propanamido)-2-oxopentanamide] |  |  |  |  | inhibit bone resorption in vitro, with similar potency to Compound A |  |  |  |  |  |  |  |  | 
